Experimental data published in US7541352B2, “Compounds for the treatment of hepatitis C” (Bristol-Myers Squibb Company, priority 2007, dated 2009).
Read-outs that look alike come from different tables or passages of the source.

Tests used:
[1] = biological target: T1, HCV NS5B RdRp genotype 1b (Hepatitis C virus genotype 1b, UniProt Q9WMX2); assay: Modified HCV NS5B RdRp enzyme assay (preincubation protocol); assay type: biochemical
T1 construct: The protein was expressed with an 18 amino acid C-terminal truncation to enhance the solubility; made in house; host or cells: E. coli BL21(DE3), pET21a
Method: HCV NS5B RdRp cloning, expression, and purification. The cDNA encoding the NS5B protein of HCV, genotype 1b, was cloned into the pET21a expression vector. The protein was expressed with an 18 amino acid C-terminal truncation to enhance the solubility. The E. coli competent cell line BL21(DE3) was used for expression of the protein. Cultures were grown at 37° C. for ˜4 hours until the cultures reached an optical density of 2.0 at 600 nm. The cultures were cooled to 20° C. and induced with 1 mM IPTG. Fresh ampicillin was added to a final concentration of 50 μg/ml and the cells were grown overnight at 20° C.
Cell pellets (3 L) were lysed for purification to yield 15-24 mgs of purified NS5B. The lysis buffer consisted of 20 mM Tris-HCl, pH 7.4, 500 mM NaCl, 0.5% triton X-100, 1 mM DTT, 1 mM EDTA, 20% glycerol, 0.5 mg/ml lysozyme, 10 mM MgCl2, 15 ug/ml deoxyribonuclease I, and Complete TM protease inhibitor tablets (Roche). After addition of the lysis buffer, frozen cell pellets were resuspended using a tissue homogenizer. To reduce the viscosity of the sample, aliquots of the lysate were sonicated on ice using a microtip attached to a Branson sonicator. The sonicated lysate was centrifuged at 100,000×g for 1 hr at 4° C. and filtered through a 0.2 μm filter unit (Corning).
The protein was purified using two sequential chromatography steps: Heparin sepharose CL-6B and polyu sepharose 4B (Pharmacia). The chromatography buffers were identical to the lysis buffer but contained no lysozyme, deoxyribonuclease I, MgCl2 or protease inhibitor and the NaCl concentration of the buffer was adjusted according to the requirements for charging the protein onto the column. Each column was eluted with a NaCl gradient which varied in length from 5-50 column volumes depending on the column type. After the final chromatography step, the resulting purity of the enzyme is >90% based on SDS-PAGE analysis. The enzyme was aliquoted and stored at −80° C.
Standard HCV NS5B RdRp enzyme assay. HCV RdRp genotype 1b assays were run in a final volume of 60 μl in 96 well plates (Corning 3600). The assay buffer is composed of 20 mM Hepes, pH 7.5, 2.5 mM KCl, 2.5 mM MgCl2, 1 mM DTT, 1.6 U RNAse inhibitor (Promega N2515), 0.01 mg/ml BSA (Sigma B6917), and 2% glycerol. All compounds were serially diluted (3-fold) in DMSO and diluted further in water such that the final concentration of DMSO in the assay was 2%. HCV RdRp genotype 1b enzyme was used at a final concentration of 28 nM. A polyA template was used at 6 nM, and a biotinylated oligo-dT 12 primer was used at 180 nM final concentration. Template was obtained commercially (Amersham 27-4110). Biotinylated primer was prepared by Sigma Genosys. 3H-UTP was used at 0.6 μCi (0.29 μM total UTP). Reactions were initiated by the addition of enzyme, incubated at 30° C. for 60 min, and stopped by adding 25 μl of 50 mM EDTA containing SPA beads (4 μg/μl, Amersham RPNQ 0007). Plates were read on a Packard Top Count NXT after >1 hr incubation at room temperature.
Modified HCV NS5B RdRp enzyme assay. A modified enzyme assay was performed essentially as described for the standard enzyme assay except for the following: The biotinylated oligo dT12 primer was precaptured on streptavidin-coated SPA beads by mixing primer and beads in assay buffer and incubating at room temperature for one hour. Unbound primer was removed after centrifugation. The primer-bound beads were resuspended in 20 mM Hepes buffer, pH 7.5 and used in the assay at final concentrations of 20 nM primer and 0.67 μg/μl beads. Order of addition in the assay: enzyme (1.75 nM) was added to diluted compound followed by the addition of a mixture of template (0.36 nM), 3H-UTP (0.6 μCi, 0.29 μM), and primer-bound beads, to initiate the reaction; concentrations given are final. Reactions were allowed to proceed for 4 hours at 30° C.
IC50 values for compounds were determined using seven different [I]. […]

HCV replicon cells = assay: HCV replicon FRET assay; assay type: cell-based
Method: FRET Assay Preparation. The HCV FRET screening assay was performed in 96-well cell culture plates. The FRET peptide (Anaspec, Inc.) (Taliani et al., Anal. Biochem. 1996, 240, 60-67) contains a fluorescence donor, EDANS, near one end of the peptide and an acceptor, DABCYL, near the other end. The fluorescence of the peptide is quenched by […] resonance energy transfer (RET) between the donor and the acceptor, but as the NS3 protease cleaves the peptide the products are released from RET quenching and the fluorescence of the donor becomes apparent. The assay reagent was made as follows: 5× cell Luciferase cell culture lysis reagent from Promega (#E153A) diluted to 1× with dH2O, NaCl added to 150 mM final, the FRET peptide diluted to 20 μM final from a 2 mM stock.
To prepare plates, HCV replicon cells, with or without a Renilla luciferase reporter gene, were trypsinized and plated in a 96-well plate with titrated test compounds added in columns 3 through 12; columns 1 and 2 contained a control compound (HCV control inhibitor), and the bottom row contained cells with DMSO only. The plates were then placed in a CO2 incubator at 37° C.
Assays. Subsequent to addition of the test compounds described above (FRET Assay Preparation), at various times the plate was removed and Alamar blue solution (Trek Diagnostics, #00-100) was added to measure cellular toxicity. After reading in a Cytoflour 4000 instrument (PE Biosystems), plates were rinsed with PBS and then used for FRET assay by the addition of 30 ul of the FRET peptide assay reagent described above (FRET Assay Preparation) per well. The plate was then placed into the Cytoflour 4000 instrument which had been set to 340 excite/490 emission, automatic mode for up to 20 cycles and the plate read in a kinetic mode. Typically, the signal to noise using an endpoint analysis after the reads was at least three-fold. Alternatively, after Alamar blue reading, plates were rinsed with PBS, then used for luciferase assay using the Promega Dual-Glo Luciferase Assay System or the Promega EnduRen Live Cell Substrate assay.
Compound analysis was performed by quantification of the relative HCV replicon inhibition and the relative cytotoxicity values. To calculate cytoxicity values, the average Alamar Blue fluorescence signals from the control wells were set as 100% non-toxic. The individual signals in each of the compound test wells were then divided by the average control signal and multiplied by 100% to determine […]. To calculate the HCV replicon inhibition values, an average background value was obtained from the two wells containing the highest amount of HCV control inhibitor at the end of the assay period. These numbers were similar to those obtained from naïve Huh-7 cells. The background numbers were then subtracted from the average signal obtained from the control wells and this number was used as 100% activity. The individual signals in each of the compound test wells were then divided by the averaged control values after background subtraction and multiplied by 100% to determine percent activity. EC50 values were calculated as the concentration which caused a 50% reduction in FRET or luciferase activity. The two numbers generated for the compound plate, percent cytoxicity and percent activity, were used to determine compounds of interest for further analysis.

[2] = HCV NS5B RdRp, determined using the preincubation protocol, read-out: IC50
[3] = Hepatitis C virus, HCV replicon cells, determined using the FRET assay, read-out: EC50

T1 sequence (Q9WMX2 2420-2992): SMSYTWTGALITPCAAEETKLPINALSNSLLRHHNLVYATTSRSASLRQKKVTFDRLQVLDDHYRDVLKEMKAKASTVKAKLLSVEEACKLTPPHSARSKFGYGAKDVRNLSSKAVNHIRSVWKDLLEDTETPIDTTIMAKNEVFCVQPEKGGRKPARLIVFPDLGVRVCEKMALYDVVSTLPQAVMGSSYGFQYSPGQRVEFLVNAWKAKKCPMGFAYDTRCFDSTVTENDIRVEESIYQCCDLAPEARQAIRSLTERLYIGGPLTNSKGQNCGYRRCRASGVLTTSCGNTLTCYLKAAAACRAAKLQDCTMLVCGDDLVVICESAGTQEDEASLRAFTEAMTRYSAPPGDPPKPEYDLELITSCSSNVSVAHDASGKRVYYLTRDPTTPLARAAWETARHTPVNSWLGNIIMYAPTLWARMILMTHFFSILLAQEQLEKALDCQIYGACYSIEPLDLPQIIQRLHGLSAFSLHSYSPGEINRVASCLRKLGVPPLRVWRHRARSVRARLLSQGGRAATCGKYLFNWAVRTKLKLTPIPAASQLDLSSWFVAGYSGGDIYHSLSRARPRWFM

Structure (SMILES) | IC50 [1, 2] [µM] | EC50 (HCV replicon cells; [3]) [µM] | EC50 (HCV replicon cells; HCV replicon cells, determined using the FRET assay, read-out: EC50) [µM] | IC50 [1] [µM] | EC50 (HCV replicon cells; Hepatitis C virus) [µM]
Cc1ccc2c(c1)C1CC1(NC(=O)C(=O)N(C)C)Cn1c-2c(C2CCCCC2)c2ccc(C(=O)NS(=O)(=O)C3CCC3)cc21 (stereo not drawn) | 0.001 to 0.5 | 0.001 to 0.5 |  |  | 
COc1ccc2c(c1)C1CC1(NC(=O)C(=O)N(C)C)Cn1c-2c(C2CCCCC2)c2ccc(C(=O)NS(=O)(=O)C(C)C)cc21 (stereo not drawn) | 0.001 to 0.5 | 0.001 to 0.5 |  |  | 
COc1ccc2c(c1)[C@@H]1C[C@]1(N(C)C(=O)C(=O)N1CCOCC1c1ccccc1)Cn1c-2c(C2CCCCC2)c2ccc(C(=O)NS(=O)(=O)N(C)C)cc21 (stereo partly drawn) | 0.001 to 0.5 | 0.001 to 0.5 |  |  | 
COC(=O)C(=O)NC12CC1c1cc(OC)ccc1-c1c(C3CCCCC3)c3ccc(C(=O)NS(=O)(=O)N(C)C)cc3n1C2 (stereo not drawn) | 0.001 to 0.5 | 0.001 to 0.5 |  |  | 
COc1ccc2c(c1)C1CC1(NC(=O)C(=O)N1CCN3CCC1CC3)Cn1c-2c(C2CCCCC2)c2ccc(C(=O)NS(=O)(=O)N(C)C)cc21 (stereo not drawn) | 0.001 to 0.5 | 0.001 to 0.5 |  |  | 
COc1ccc2c(c1)C1CC1(NC(=O)C(=O)N1CC(OC)C1)Cn1c-2c(C2CCCCC2)c2ccc(C(=O)NS(=O)(=O)N(C)C)cc21 (stereo not drawn) | 0.001 to 0.5 | 0.001 to 0.5 |  |  | 
COc1ccc2c(c1)C1CC1(NC(=O)C(=O)N1CCOCC1)Cn1c-2c(C2CCCCC2)c2ccc(C(=O)NS(=O)(=O)N(C)C)cc21 (stereo not drawn) | 0.001 to 0.5 | 0.001 to 0.5 |  |  | 
COc1ccc2c(c1)[C@H]1C[C@@]1(NC(=O)C(=O)N(C)C)Cn1c-2c(C2CCCCC2)c2ccc(C(=O)NS(=O)(=O)N(C)C)cc21 [drawing 42] | 0.001 to 0.5 | 0.001 to 0.5 |  |  | 
COc1ccc2c(c1)C1CC1(NC(=O)C(=O)N1C[C@@H](C)N(C)[C@@H](C)C1)Cn1c-2c(C2CCCCC2)c2ccc(C(=O)NS(=O)(=O)N(C)C)cc21 (stereo partly drawn) | 0.001 to 0.5 | 0.001 to 0.5 |  |  | 
COc1ccc2c(c1)C1CC1(N(C)C(=O)C(=O)N1CC(OC)C1)Cn1c-2c(C2CCCCC2)c2ccc(C(=O)NS(=O)(=O)N(C)C)cc21 (stereo not drawn) | 0.001 to 0.5 | 0.001 to 0.5 |  |  | 
COc1ccc2c(c1)C1CC1(NS(=O)(=O)N1CCOCC1)Cn1c-2c(C2CCCCC2)c2ccc(C(=O)NS(=O)(=O)N(C)C)cc21 (stereo not drawn) | 0.001 to 0.5 | 0.001 to 0.5 |  |  | 
COc1ccc2c(c1)C1CC1(NC(=O)C(=O)N1CCCC1)Cn1c-2c(C2CCCCC2)c2ccc(C(=O)NS(=O)(=O)N(C)C)cc21 (stereo not drawn) [drawing 32] | 0.001 to 0.5 | 0.001 to 0.5 |  |  | 
CCC(C)S(=O)(=O)NC(=O)c1ccc2c(C3CCCCC3)c3n(c2c1)CC1(NC(=O)C(=O)N(C)C)CC1c1cc(OC)ccc1-3 (stereo not drawn) | 0.001 to 0.5 | 0.001 to 0.5 |  |  | 
COc1ccc2c(c1)C1CC1(NC(=O)C(=O)N1CCCC1)Cn1c-2c(C2CCCCC2)c2ccc(C(=O)NS(=O)(=O)N(C)C)cc21 (stereo not drawn) [drawing 39] | 0.001 to 0.5 |  | 0.001 to 0.5 |  | 
COc1ccc(S(=O)(=O)NC23CC2c2cc(OC)ccc2-c2c(C4CCCCC4)c4ccc(C(=O)NS(=O)(=O)N(C)C)cc4n2C3)c(OC)c1 (stereo not drawn) | 0.001 to 0.5 | 0.001 to 0.5 |  |  | 
COc1ccc2c(c1)C1CC1(NC(=O)N1C3CCC1CN(C)C3)Cn1c-2c(C2CCCCC2)c2ccc(C(=O)NS(=O)(=O)N(C)C)cc21 (stereo not drawn) |  |  |  | 0.001 to 0.5 | 0.001 to 0.5
COc1ccc2c(c1)C1CC1(NS(=O)(=O)C1CCN(C(=O)OCc3ccccc3)CC1)Cn1c-2c(C2CCCCC2)c2ccc(C(=O)NS(=O)(=O)N(C)C)cc21 (stereo not drawn) | 0.001 to 0.5 | 0.001 to 0.5 |  |  | 
COc1ccc2c(c1)C1CC1(NC(=O)C(=O)N(C)C)Cn1c-2c(C2CCCCC2)c2ccc(C(=O)NS(=O)(=O)CC(C)(C)C)cc21 (stereo not drawn) | 0.001 to 0.5 | 0.001 to 0.5 |  |  | 
COc1ccc(C2COCCN2C(=O)C(=O)NC23CC2c2cc(OC)ccc2-c2c(C4CCCCC4)c4ccc(C(=O)NS(=O)(=O)N(C)C)cc4n2C3)cc1 (stereo not drawn) | 0.001 to 0.5 | 0.001 to 0.5 |  |  | 
COc1ccc2c(c1)[C@H]1C[C@@]1(NC(=O)C(=O)N(C)C)Cn1c-2c(C2CCCCC2)c2ccc(C(=O)NS(=O)(=O)N(C)C)cc21 [drawing 37] | 0.001 to 0.5 |  |  |  | 
COc1ccc2c(c1)[C@@H]1C[C@]1(NC(=O)C(=O)N1C[C@@H](C)O[C@@H](C)C1)Cn1c-2c(C2CCCCC2)c2ccc(C(=O)NS(=O)(=O)N(C)C)cc21 [drawing 43] | 0.001 to 0.5 | 0.001 to 0.5 |  |  | 
COc1ccc2c(c1)C1CC1(NC(=O)C(=O)N1CCN(C)CC1)Cn1c-2c(C2CCCCC2)c2ccc(C(=O)NS(=O)(=O)N(C)C)cc21 (stereo not drawn) | 0.001 to 0.5 | 0.001 to 0.5 |  |  | 
COc1ccc2c(c1)C1CC1(NC(=O)N1CC3CN(Cc4ccccc4)CC(C1)N3Cc1ccccc1)Cn1c-2c(C2CCCCC2)c2ccc(C(=O)NS(=O)(=O)N(C)C)cc21 (stereo not drawn) |  |  |  | 0.001 to 0.5 | 
COc1ccc2c(c1)C1C[C@@]1(NC(=O)C(=O)N(C)C)Cn1c-2c(C2CCCCC2)c2ccc(C(=O)NS(=O)(=O)N(C)C)cc21 (stereo partly drawn) [drawing 37] |  | 0.001 to 0.5 |  |  | 
